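96-well plates; 48 h exposure; 5 concentrations. Endpoints by linear interpolation between flanking doses. Not reached: highest tested concentration assigned. TGI marks complete inhibition of growth.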
Assays:
Assay in all cases: DTP human tumour cell line panel, 48 h
786-0 renal = test system: 786-0 renal
A498 renal = test system: A498 renal
A549 NSCLC = test system: A549 NSCLC
ACHN renal = test system: ACHN renal
BT-549 breast = test system: BT-549 breast
CAKI-1 renal = test system: CAKI-1 renal
COLO 205 colon = test system: COLO 205 colon
DU-145 prostate = test system: DU-145 prostate
EKVX NSCLC = test system: EKVX NSCLC
HCC-2998 colon = test system: HCC-2998 colon
HCT-116 colon = test system: HCT-116 colon
HCT-15 colon = test system: HCT-15 colon
HL-60(TB) leukemia = test system: HL-60(TB) leukemia
HOP-62 NSCLC = test system: HOP-62 NSCLC
HOP-92 NSCLC = test system: HOP-92 NSCLC
HS 578T breast = test system: HS 578T breast
HT29 colon = test system: HT29 colon
IGROV1 ovarian = test system: IGROV1 ovarian
K-562 leukemia = test system: K-562 leukemia
KM12 colon = test system: KM12 colon
M14 melanoma = test system: M14 melanoma
MALME-3M melanoma = test system: MALME-3M melanoma
MCF7 breast = test system: MCF7 breast
MDA-MB-231 breast = test system: MDA-MB-231 breast
MDA-MB-435 = test system: MDA-MB-435
MDA-N = test system: MDA-N
MOLT-4 leukemia = test system: MOLT-4 leukemia
NCI-H226 lung = test system: NCI-H226 lung
NCI-H23 lung = test system: NCI-H23 lung
NCI-H460 lung = test system: NCI-H460 lung
NCI-H522 lung = test system: NCI-H522 lung
NCI/ADR-RES ovarian = test system: NCI/ADR-RES ovarian
OVCAR-3 ovarian = test system: OVCAR-3 ovarian
OVCAR-4 ovarian = test system: OVCAR-4 ovarian
OVCAR-5 ovarian = test system: OVCAR-5 ovarian
OVCAR-8 ovarian = test system: OVCAR-8 ovarian
PC-3 prostate = test system: PC-3 prostate
RPMI-8226 leukemia = test system: RPMI-8226 leukemia
RXF 393 renal = test system: RXF 393 renal
SF-268 CNS = test system: SF-268 CNS
SF-295 CNS = test system: SF-295 CNS
SF-539 CNS = test system: SF-539 CNS
SK-MEL-2 melanoma = test system: SK-MEL-2 melanoma
SK-MEL-28 melanoma = test system: SK-MEL-28 melanoma
SK-MEL-5 melanoma = test system: SK-MEL-5 melanoma
SK-OV-3 ovarian = test system: SK-OV-3 ovarian
SN12C renal = test system: SN12C renal
SNB-19 CNS = test system: SNB-19 CNS
SNB-75 CNS = test system: SNB-75 CNS
SR leukemia = test system: SR leukemia
SW-620 colon = test system: SW-620 colon
T-47D breast = test system: T-47D breast
TK-10 renal = test system: TK-10 renal
U251 CNS = test system: U251 CNS
UACC-257 melanoma = test system: UACC-257 melanoma
UACC-62 melanoma = test system: UACC-62 melanoma
UO-31 renal = test system: UO-31 renal
CCRF-CEM leukemia = test system: CCRF-CEM leukemia
LOX IMVI melanoma = test system: LOX IMVI melanoma

How did the TGI (786-0 renal) turn out when `Clc1ccccc1-c1nc(-c2ccncc2)no1` was run?
Its TGI is greater than 100 µM.

What about the TGI (A498 renal) of the same molecule?
The TGI was greater than 100 µM.

What about the TGI (A549 NSCLC) of the same molecule?
The TGI was greater than 100 µM.

And the TGI (ACHN renal)?
The TGI was greater than 100 µM.

And the TGI (BT-549 breast)?
Its TGI is greater than 100 µM.

And the TGI (CAKI-1 renal)?
Its TGI is greater than 100 µM.

And the TGI (COLO 205 colon)?
The TGI was greater than 100 µM.

And the TGI (DU-145 prostate)?
Its TGI is greater than 100 µM.

And the TGI (EKVX NSCLC)?
The TGI was greater than 100 µM.

What about the TGI (HCC-2998 colon) of the same molecule?
Its TGI is 84.8 µM.

What about the TGI (HCT-116 colon) of the same molecule?
Its TGI is greater than 100 µM.

What about the TGI (HCT-15 colon) of the same molecule?
Its TGI is greater than 100 µM.

What about the TGI (HL-60(TB) leukemia) of the same molecule?
The TGI was 29.2 µM.

What about the TGI (HOP-62 NSCLC) of the same molecule?
The TGI was greater than 100 µM.

What about the TGI (HOP-92 NSCLC) of the same molecule?
The TGI was greater than 100 µM.

What about the TGI (HS 578T breast) of the same molecule?
The TGI was greater than 100 µM.

What about the TGI (HT29 colon) of the same molecule?
The TGI was greater than 100 µM.

And the TGI (IGROV1 ovarian)?
Its TGI is greater than 100 µM.

And the TGI (K-562 leukemia)?
Its TGI is greater than 100 µM.

And the TGI (KM12 colon)?
The TGI was greater than 100 µM.

And the TGI (M14 melanoma)?
Its TGI is greater than 100 µM.

And the TGI (MALME-3M melanoma)?
Its TGI is greater than 100 µM.

And the TGI (MCF7 breast)?
Its TGI is greater than 100 µM.

What about the TGI (MDA-MB-231 breast) of the same molecule?
Its TGI is greater than 100 µM.

What about the TGI (MDA-MB-435) of the same molecule?
The TGI was greater than 100 µM.

What about the TGI (MDA-N) of the same molecule?
Its TGI is greater than 100 µM.

And the TGI (MOLT-4 leukemia)?
The TGI was greater than 100 µM.

And the TGI (NCI-H226 lung)?
The TGI was greater than 100 µM.

And the TGI (NCI-H23 lung)?
Its TGI is greater than 100 µM.

And the TGI (NCI-H460 lung)?
Its TGI is greater than 100 µM.

What about the TGI (NCI-H522 lung) of the same molecule?
Its TGI is greater than 100 µM.

And the TGI (NCI/ADR-RES ovarian)?
Its TGI is greater than 100 µM.

And the TGI (OVCAR-3 ovarian)?
The TGI was greater than 100 µM.

And the TGI (OVCAR-4 ovarian)?
Its TGI is greater than 100 µM.

And the TGI (OVCAR-5 ovarian)?
Its TGI is greater than 100 µM.

What about the TGI (OVCAR-8 ovarian) of the same molecule?
Its TGI is greater than 100 µM.

What about the TGI (PC-3 prostate) of the same molecule?
Its TGI is greater than 100 µM.

And the TGI (RPMI-8226 leukemia)?
The TGI was greater than 100 µM.

What about the TGI (RXF 393 renal) of the same molecule?
Its TGI is greater than 100 µM.

And the TGI (SF-268 CNS)?
Its TGI is greater than 100 µM.

What about the TGI (SF-295 CNS) of the same molecule?
The TGI was greater than 100 µM.

What about the TGI (SF-539 CNS) of the same molecule?
The TGI was greater than 100 µM.

And the TGI (SK-MEL-2 melanoma)?
Its TGI is greater than 100 µM.

And the TGI (SK-MEL-28 melanoma)?
Its TGI is greater than 100 µM.

And the TGI (SK-MEL-5 melanoma)?
The TGI was 56.4 µM.

And the TGI (SK-OV-3 ovarian)?
Its TGI is greater than 100 µM.

What about the TGI (SN12C renal) of the same molecule?
The TGI was greater than 100 µM.

What about the TGI (SNB-19 CNS) of the same molecule?
The TGI was greater than 100 µM.

And the TGI (SNB-75 CNS)?
The TGI was greater than 100 µM.

What about the TGI (SR leukemia) of the same molecule?
Its TGI is greater than 100 µM.

And the TGI (SW-620 colon)?
Its TGI is greater than 100 µM.

And the TGI (T-47D breast)?
The TGI was greater than 100 µM.

What about the TGI (TK-10 renal) of the same molecule?
The TGI was greater than 100 µM.

And the TGI (U251 CNS)?
Its TGI is greater than 100 µM.

What about the TGI (UACC-257 melanoma) of the same molecule?
Its TGI is greater than 100 µM.

And the TGI (UACC-62 melanoma)?
Its TGI is greater than 100 µM.

What about the TGI (UO-31 renal) of the same molecule?
Its TGI is greater than 100 µM.

What does the source list for `O=C(O)CC(C(=O)O)C1c2ccccc2-c2ccccc21` (configuration not stated)?
TGI (786-0 renal): > 100 µM; TGI (A498 renal): > 100 µM; TGI (A549 NSCLC): > 100 µM; TGI (ACHN renal): > 100 µM; TGI (BT-549 breast): > 100 µM; TGI (CAKI-1 renal): > 100 µM; TGI (CCRF-CEM leukemia): > 100 µM; TGI (COLO 205 colon): > 100 µM; TGI (DU-145 prostate): > 100 µM; TGI (EKVX NSCLC): > 100 µM; TGI (HCC-2998 colon): > 100 µM; TGI (HCT-116 colon): > 100 µM; TGI (HCT-15 colon): > 100 µM; TGI (HL-60(TB) leukemia): > 100 µM; TGI (HOP-62 NSCLC): > 100 µM; TGI (HS 578T breast): > 100 µM; TGI (HT29 colon): > 100 µM; TGI (IGROV1 ovarian): > 100 µM; TGI (K-562 leukemia): > 100 µM; TGI (KM12 colon): > 100 µM; TGI (LOX IMVI melanoma): > 100 µM; TGI (M14 melanoma): > 100 µM; TGI (MALME-3M melanoma): > 100 µM; TGI (MCF7 breast): > 100 µM; TGI (MDA-MB-231 breast): > 100 µM; TGI (MDA-MB-435): > 100 µM; TGI (MDA-N): > 100 µM; TGI (MOLT-4 leukemia): > 100 µM; TGI (NCI-H226 lung): > 100 µM; TGI (NCI-H23 lung): > 100 µM; TGI (NCI-H460 lung): > 100 µM; TGI (NCI-H522 lung): > 100 µM; TGI (NCI/ADR-RES ovarian): > 100 µM; TGI (OVCAR-3 ovarian): > 100 µM; TGI (OVCAR-4 ovarian): > 100 µM; TGI (OVCAR-8 ovarian): > 100 µM; TGI (PC-3 prostate): > 100 µM; TGI (RPMI-8226 leukemia): > 100 µM; TGI (RXF 393 renal): > 100 µM; TGI (SF-268 CNS): > 100 µM; TGI (SF-295 CNS): > 100 µM; TGI (SK-MEL-2 melanoma): > 100 µM; TGI (SK-MEL-28 melanoma): > 100 µM; TGI (SK-MEL-5 melanoma): > 100 µM; TGI (SK-OV-3 ovarian): > 100 µM; TGI (SN12C renal): > 100 µM; TGI (SNB-19 CNS): > 100 µM; TGI (SR leukemia): > 100 µM; TGI (SW-620 colon): > 100 µM; TGI (T-47D breast): > 100 µM; TGI (TK-10 renal): > 100 µM; TGI (U251 CNS): > 100 µM; TGI (UACC-257 melanoma): > 100 µM; TGI (UACC-62 melanoma): > 100 µM; TGI (UO-31 renal): > 100 µM

— PubChem BioAssay (NCI)
